In ChEMBL document CHEMBL1137095, “Synthesis and radioiodination of selective ligands for the dopamine D3 receptor subtype” (Bioorg Med Chem Lett, 2004):

How the values were obtained:
[1] = molecular target: D(1A) dopamine receptor (Sus scrofa, UniProt P50130); test: Binding affinity towards D1 receptor from porcine striatal membranes using [3H]-SCH- 23390
[2] = molecular target: T1, D(4) dopamine receptor (Homo sapiens, UniProt P21917); test: biochemical
T1 sequence (P21917 whole entry): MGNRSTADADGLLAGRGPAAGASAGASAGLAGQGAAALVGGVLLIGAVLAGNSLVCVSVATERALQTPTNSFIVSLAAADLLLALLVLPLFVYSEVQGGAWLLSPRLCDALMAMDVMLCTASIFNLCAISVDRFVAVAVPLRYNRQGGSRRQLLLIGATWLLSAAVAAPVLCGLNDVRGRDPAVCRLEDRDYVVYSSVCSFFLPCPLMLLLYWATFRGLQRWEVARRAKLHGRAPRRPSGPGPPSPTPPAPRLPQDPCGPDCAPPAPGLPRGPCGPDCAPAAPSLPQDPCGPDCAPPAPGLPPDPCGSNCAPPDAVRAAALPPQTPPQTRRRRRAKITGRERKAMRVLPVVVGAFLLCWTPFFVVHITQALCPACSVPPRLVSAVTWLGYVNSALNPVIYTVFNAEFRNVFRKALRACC
Description: Binding affinity towards human D4.4 receptor using [3H]spiperone expressed in CHO cells

[3] = molecular target: T2, D(2) dopamine receptor (Homo sapiens, UniProt P14416); test: biochemical
T2 sequence (P14416 whole entry): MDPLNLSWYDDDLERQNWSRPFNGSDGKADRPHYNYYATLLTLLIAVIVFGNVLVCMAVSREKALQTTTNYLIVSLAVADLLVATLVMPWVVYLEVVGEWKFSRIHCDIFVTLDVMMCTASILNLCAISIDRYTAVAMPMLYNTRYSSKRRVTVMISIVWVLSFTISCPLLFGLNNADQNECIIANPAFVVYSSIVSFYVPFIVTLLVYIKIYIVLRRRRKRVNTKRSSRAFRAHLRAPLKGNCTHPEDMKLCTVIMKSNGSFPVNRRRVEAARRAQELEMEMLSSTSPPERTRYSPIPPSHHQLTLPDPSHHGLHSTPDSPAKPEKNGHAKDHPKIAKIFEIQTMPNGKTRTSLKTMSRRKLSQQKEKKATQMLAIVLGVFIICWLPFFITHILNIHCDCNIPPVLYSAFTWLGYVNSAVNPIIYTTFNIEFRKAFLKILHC
Description: Binding affinity towards human D2 short receptor using [3H]spiperone expressed in CHO cells

[4] = molecular target: D(3) dopamine receptor (Homo sapiens, UniProt P35462); test: biochemical
D(3) dopamine receptor, sequence (P35462 whole entry): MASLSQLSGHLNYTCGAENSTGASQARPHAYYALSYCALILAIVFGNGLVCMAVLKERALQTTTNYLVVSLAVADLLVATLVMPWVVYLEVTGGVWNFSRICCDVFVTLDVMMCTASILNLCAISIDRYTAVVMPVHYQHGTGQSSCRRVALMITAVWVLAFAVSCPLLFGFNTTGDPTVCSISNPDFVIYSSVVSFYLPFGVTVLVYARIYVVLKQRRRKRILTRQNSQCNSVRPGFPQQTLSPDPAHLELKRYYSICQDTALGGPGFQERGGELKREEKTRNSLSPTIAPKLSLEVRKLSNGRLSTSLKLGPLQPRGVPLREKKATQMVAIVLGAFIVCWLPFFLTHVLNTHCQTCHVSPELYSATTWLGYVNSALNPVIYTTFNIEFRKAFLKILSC
Description: Binding affinity towards human D3 receptor using [3H]spiperone expressed in CHO cells

[5] = Binding affinity towards 5-HT2 receptor from porcine cortical membranes using [3H]ketanserin
[6] = molecular target: T2, D(2) dopamine receptor; test: biochemical; remark: listed apart in the source
Description: Binding affinity towards human D2 long receptor using [3H]spiperone expressed in CHO cells

D(1A) dopamine receptor, sequence (P50130 whole entry): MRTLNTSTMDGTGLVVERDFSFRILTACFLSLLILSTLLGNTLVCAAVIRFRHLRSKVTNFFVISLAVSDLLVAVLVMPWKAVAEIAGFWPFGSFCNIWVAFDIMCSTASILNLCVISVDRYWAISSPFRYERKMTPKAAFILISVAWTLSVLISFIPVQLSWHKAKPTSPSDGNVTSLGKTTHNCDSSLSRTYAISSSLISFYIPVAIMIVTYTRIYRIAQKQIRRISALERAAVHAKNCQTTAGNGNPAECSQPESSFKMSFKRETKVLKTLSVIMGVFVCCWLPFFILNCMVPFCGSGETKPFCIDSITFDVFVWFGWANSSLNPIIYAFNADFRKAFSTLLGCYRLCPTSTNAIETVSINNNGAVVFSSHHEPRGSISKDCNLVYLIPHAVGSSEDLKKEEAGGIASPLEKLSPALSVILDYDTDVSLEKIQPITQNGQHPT

Compound | Ki [1] [nM] | Ki [2] [nM] | Ki [3] [nM] | Ki [4] [nM] | Ki [5] [nM] | Ki [6] [nM]
COc1ccccc1N1CCN(CCCCNC(=O)c2cc3cc(I)ccc3o2)CC1 | 420 | 46 | 27 | 1.4 | 230 | –
COc1ccccc1N1CCN(CCCCNC(=O)c2ccc(I)s2)CC1 | 600 | 31 | 35 | 2.4 | 690 | 75
O=C(NCCCCN1CCN(c2cccc(Cl)c2Cl)CC1)c1cc2cc(I)ccc2s1 | 1400 | 550 | 140 | 4.5 | 290 | 450
O=C(NCCCCN1CCN(c2cccc(Cl)c2Cl)CC1)c1cc2cc(I)ccc2o1 | 3300 | 2200 | 430 | – | 790 | 3200
COc1ccccc1N1CCN(CCCCNC(=O)c2cc3cc(I)ccc3s2)CC1 | 520 | 42 | 1 | 0.86 | 250 | 48
O=C(NCCCCN1CCN(c2cccc(Cl)c2Cl)CC1)c1ccc(I)s1 | 820 | 130 | 32 | 1.4 | 210 | 89
O=C(NCCCCN1CCN(c2cccc(Cl)c2Cl)CC1)c1cc2ccccc2s1 | – | – | – | – | 3000 | –
